Reference: patent US6737383B1, “Herbicidal oxadiazolidines” (priority 1999, dated 2004)

Tests used:
[1] = system: bedstraw; assay: Test B pre/postemergence bedstraw; format: in vivo, Galium aparine
In short: (§1)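 Response is a visual 0-to-10 score relative to untreated plants, where 0 means no effect and 10 means complete control, taken twelve to sixteen days after application. Treatments went onto soil at planting and onto foliage of 1- to 4-leaf plants, using a surfactant-containing non-phytotoxic solvent.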

[2] = system: surinam grass; assay: Test B pre/postemergence surinam grass; format: in vivo, Brachiaria decumbens
In short: as §1

[3] = system: cocklebur; assay: Test B pre/postemergence cocklebur; format: in vivo, Xanthium strumarium
In short: as §1

[4] = system: corn; assay: Test B pre/postemergence corn; format: in vivo, Zea mays
In short: as §1

[5] = system: crabgrass; assay: Test B pre/postemergence crabgrass; format: in vivo, Digitaria sanguinalis
In short: as §1

[6] = system: morningglory; assay: Test B pre/postemergence morningglory; format: in vivo, Ipomoea hederacea
In short: as §1

[7] = system: pigweed; assay: Test B pre/postemergence pigweed; format: in vivo, Amaranthus retroflexus
In short: as §1

[8] = system: rape; assay: Test B pre/postemergence rape; format: in vivo, Brassica napus
In short: as §1

[9] = system: soybean; assay: Test B pre/postemergence soybean; format: in vivo, Glycine max
In short: as §1

[10] = system: sugar beet; assay: Test B pre/postemergence sugar beet; format: in vivo, Beta vulgaris
In short: as §1

[11] = system: velvetleaf; assay: Test B pre/postemergence velvetleaf; format: in vivo, Abutilon theophrasti
In short: as §1

[12] = system: wild oat; assay: Test B pre/postemergence wild oat; format: in vivo, Avena fatua
In short: as §1

[13] = system: rice; assay: Test B flood test rice; format: in vivo, Oryza sativa
In short: (§2)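 Plants were grown to the 2-leaf stage before treatment with test chemical, then held in a greenhouse for twelve to sixteen days. Injury was visually rated against untreated controls on a 0–10 scale, where 0 is no effect and 10 is complete control.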

[14] = system: smallflower flatsedge; assay: Test B flood test smallflower flatsedge; format: in vivo, Cyperus difformis
In short: as §2

[15] = system: duck salad; assay: Test B flood test duck salad; format: in vivo, Heteranthera limosa
In short: as §2

[16] = system: bamyardgrass; assay: Test B flood test barnyardgrass; format: in vivo, Echinochloa crus-galli
In short: as §2

[17] = Postemergence, Rate 125 g/ha, scale of 0 to 10 where 0 is no effect and 10 is complete control
[18] = Postemergence, Rate 250 g/ha, scale of 0 to 10, 0 is no effect, 10 is complete control
[19] = Preemergence, Rate 62 g/ha, scale 0 to 10 (0 no effect, 10 complete control)
[20] = Preemergence, Rate 125 g/ha, scale of 0 to 10 where 0 is no effect and 10 is complete control
[21] = Preemergence, Rate 500 g/ha, scale of 0 to 10 where 0 is no effect and 10 is complete control
[22] = Postemergence, Rate 62 g/ha, scale 0 to 10, 0 is no effect, 10 is complete control
[23] = Postemergence, Rate 500 g/ha, scale of 0 to 10 where 0 is no effect and 10 is complete control
[24] = Rate 62 g/ha, flood test species, Pre-emergence, visual evaluation after twelve to sixteen days
[25] = Rate 125 g/ha, under heading Pre-emergence, flood test species, visual evaluation after twelve to sixteen days
[26] = Rate 250 g/ha, Pre-emergence (flood test species), scale 0 to 10, 0 is no effect, 10 is complete control
[27] = Rate 500 g/ha, Pre-emergence section of Table B, 0 to 10 scale (0 no effect, 10 complete control)

Compound: CC(C)N(C(=O)n1oc(=O)n(CC2=NOCCC2)c1=O)c1ccc(F)cc1F [Compound 602]
- Plant response rating, Bedstraw [1, 17]: 3
- Bedstraw plant response rating [1, 18]: 3
- Bedstraw plant response rating [1, 19]: 0
- Bedstraw plant response rating [1, 20]: 0
- Bedstraw plant response rating (0 to 10 scale) ([1]; Preemergence, Rate 250 g/ha): 0
- Bedstraw plant response rating [1, 21]: 0
- Plant response rating, B. signalgrass [2, 22]: 0
- Plant response rating, B. signalgrass [2, 17]: 2
- B. signalgrass plant response rating [2, 18]: 5
- Plant response rating, B. signalgrass [2, 23]: 7
- B. signalgrass plant response rating [2, 19]: 0
- B. signalgrass plant response rating [2, 20]: 4
- B. signalgrass plant response rating (0 to 10 scale, 0 is no effect, 10 is complete control) ([2]; Preemergence, Rate 250 g/ha): 7
- B. signalgrass plant response rating [2, 21]: 7
- Plant response rating, Cocklebur [3, 22]: 0
- Plant response rating, Cocklebur [3, 17]: 0
- Cocklebur plant response rating [3, 18]: 0
- Plant response rating, Cocklebur [3, 23]: 0
- Cocklebur plant response rating [3, 19]: 0
- Cocklebur plant response rating [3, 20]: 0
- Cocklebur plant response rating (0 to 10 scale) ([3]; Preemergence, Rate 250 g/ha): 0
- Plant response rating, Cocklebur [3, 21]: 0
- Plant response rating, Corn [4, 22]: 0
- Plant response rating, Corn [4, 17]: 0
- Corn plant response rating [4, 18]: 0
- Plant response rating, Corn [4, 23]: 0
- Corn plant response rating [4, 19]: 0
- Corn plant response rating [4, 20]: 0
- Corn plant response rating (0 to 10 scale) ([4]; Preemergence, Rate 250 g/ha): 0
- Plant response rating, Corn [4, 21]: 2
- Plant response rating, Crabgrass [5, 22]: 2
- Plant response rating, Crabgrass [5, 17]: 4
- Crabgrass plant response rating [5, 18]: 4
- Plant response rating, Crabgrass [5, 23]: 9
- Crabgrass plant response rating [5, 19]: 7
- Crabgrass plant response rating [5, 20]: 8
- Plant response rating, Crabgrass [5, 21]: 10
- Plant response rating, Morningglory [6, 22]: 0
- Plant response rating, Morningglory [6, 17]: 1
- Morningglory plant response rating [6, 18]: 2
- Plant response rating, Morningglory [6, 23]: 3
- Morningglory plant response rating [6, 19]: 0
- Morningglory plant response rating [6, 20]: 0
- Plant response rating, Morningglory [6, 21]: 0
- Plant response rating, Redroot pigweed [7, 22]: 2
- Plant response rating, Redroot pigweed [7, 17]: 2
- Redroot pigweed plant response rating [7, 18]: 3
- Plant response rating, Redroot pigweed [7, 23]: 6
- Redroot pigweed plant response rating [7, 19]: 2
- Redroot pigweed plant response rating [7, 20]: 7
- Plant response rating, Redroot pigweed [7, 21]: 8
- Plant response rating, Rape [8, 22]: 0
- Plant response rating, Rape [8, 17]: 0
- Rape plant response rating [8, 18]: 0
- Plant response rating, Rape [8, 23]: 0
- Rape plant response rating [8, 19]: 0
- Rape plant response rating [8, 20]: 0
- Plant response rating, Rape [8, 21]: 3
- Plant response rating, Soybean [9, 22]: 3
- Plant response rating, Soybean [9, 17]: 3
- Soybean plant response rating [9, 18]: 5
- Plant response rating, Soybean [9, 23]: 7
- Soybean plant response rating [9, 20]: 0
- Plant response rating, Soybean [9, 21]: 0
- Plant response rating, Sugarbeets [10, 22]: 0
- Plant response rating, Sugarbeets [10, 17]: 0
- Sugarbeets plant response rating [10, 18]: 0
- Plant response rating, Sugarbeets [10, 23]: 0
- Sugarbeets plant response rating [10, 19]: 0
- Sugarbeets plant response rating [10, 20]: 2
- Plant response rating, Sugarbeets [10, 21]: 5
- Plant response rating, Velvetleaf [11, 22]: 0
- Plant response rating, Velvetleaf [11, 17]: 0
- Velvetleaf plant response rating [11, 18]: 0
- Plant response rating, Velvetleaf [11, 23]: 0
- Velvetleaf plant response rating [11, 19]: 0
- Velvetleaf plant response rating [11, 20]: 6
- Plant response rating, Velvetleaf [11, 21]: 6
- Plant response rating, Wild oats [12, 22]: 0
- Plant response rating, Wild oats [12, 17]: 0
- Wild oats plant response rating [12, 18]: 0
- Plant response rating, Wild oats [12, 23]: 3
- Wild oats plant response rating [12, 19]: 0
- Wild oats plant response rating [12, 20]: 3
- Plant response rating, Wild oats [12, 21]: 8
- Plant response rating, Rice (0 to 10 scale, 0 is no effect, 10 is complete control) [13, 24]: 0
- Rice plant response rating (0 to 10 scale, 0 is no effect, 10 is complete control) [13, 25]: 0
- Rice plant response rating [13, 26]: 0
- Rice plant response rating [13, 27]: 0
- Plant response rating, S. Flatsedge (0 to 10 scale, 0 is no effect, 10 is complete control) [14, 24]: 0
- S. Flatsedge plant response rating (0 to 10 scale, 0 is no effect, 10 is complete control) [14, 25]: 0
- S. Flatsedge plant response rating [14, 26]: 0
- S. Flatsedge plant response rating [14, 27]: 0
- Plant response rating, Ducksalad (0 to 10 scale, 0 is no effect, 10 is complete control) [15, 24]: 0
- Ducksalad plant response rating (0 to 10 scale, 0 is no effect, 10 is complete control) [15, 25]: 0
- Ducksalad plant response rating [15, 26]: 0
- Ducksalad plant response rating [15, 27]: 0
- Plant response rating, Barnyardgrass (0 to 10 scale, 0 is no effect, 10 is complete control) [16, 24]: 0
- Barnyardgrass plant response rating (0 to 10 scale, 0 is no effect, 10 is complete control) [16, 25]: 0
- Barnyardgrass plant response rating [16, 26]: 0
- Barnyardgrass plant response rating [16, 27]: 0
